From patent publication US20220205982A1 (CHILDREN'S HOSPITAL MEDICAL CENTER, priority 2019, published 2022)
Like-named read-outs stand apart in the source and are kept apart here.

Test: PK of melphalan in plasma by ESI-LC-MS/MS in patients undergoing HSCT
Format: in vivo
Settings: human, intravenous
Protocol: Patients undergoing HSCT were administered by intravenous infusion a low dose of melphalan (referred to as the ‘test’ dose) to first determine each patient's individualized pharmacokinetics of the drug. After that the personalized optimal full dose was calculated from these measurements and then administered. The test dose equated to 10% of the expected standard full dose for each patient. Blood samples for pharmacokinetic measurement were collected after the test dose and again after the full standard dose of melphalan. Samples were collected at baseline, 5-10 mins before drug infusion, and then 5 min, 15 min, 30 min, 45 min, 1 h, 2h, 2.5h, 4h, and 6h post-infusion. The blood samples were collected on ice and immediately transferred to the lab for PS-MS/MS analysis after collection to minimize drug degradation. Plasma samples from the same blood draw were also obtained after centrifugation at 3000 rpm for 15 min and stored at −80° C. degree until analyzed by both PS-MS/MS and LC-ESI-MS/MS.
Each patient's pharmacokinetic profile was determined using WinNonlin v6.4 (Pharsight, Mountain View, Calif.). […]
The PS-MS\MS method was validated in accordance with the FDA guidance for Bioanalytical Method Validation (fda.gov/downloads/Drugs/Guidance/ucm070107.pdf, May 2011), and Bansa S, et al., AAPS J., 2007, 9, 109-114. Specifically, three analytical runs were processed and analyzed to assess sensitivity, reproducibility, accuracy and precision. […] The assay accuracy was evaluated by comparing results obtained by PS-MS/MS to those obtained by a validated in-house LC-MS/MS melphalan assay for the same samples, wherein melphalan samples were measured by liquid chromatography-tandem mass spectrometry (LC-MS/MS) with selected-reaction monitoring and with the use of stable isotopic-labeled [2H8]-melphalan as the internal standard. Samples were analyzed with the LC20AD HPLC system (Shimadzu) coupled to the TSQ Quantum Ultra Triple Quadrupole Mass Spectrometer (Thermo Scientific). […]

N[C@@H](Cc1ccc(N(CCCl)CCCl)cc1)C(=O)O [melphalan, 4-[Bis(2-chloroethyl)amino]-L-phenylalanine]
AUC (10 % of the expected standard full dose, lower test doses, ESI-LC-MS/MS, n=4, read-out: calculated mean AUC): 430 ± 210 ng·h/mL
AUC (Full Dose, individual patients and mean row, read-out: ESI-LC-MS/MS Plasma AUC): 3900 ng·h/mL
AUC (full dose, ESI-LC-MS/MS method, n=5, read-out: calculated mean AUC): 4300 ± 1000 ng·h/mL
